The source of these data is PubChem BioAssay (NCI).

Several values for one entry are separate records, joined by “and”; a condition that tells them apart may be missing. Equal values may be shown once.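 Grown in 96-well plates, cells were treated for 48 hours with each compound at five concentrations. Insufficient inhibition: endpoint recorded as highest concentration tested. GI50 is the concentration that inhibits growth by half. Definition used: TGI = concentration required for complete inhibition of growth.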

Common to all, as to experiment: growth of human tumour cells (NCI), 48 h
Test [1] deals with EKVX NSCLC.
In test [2] the test system is HCT-15 colon.
The test system of test [3] is KM12 colon.
Test [4] has as its system OVCAR-5 ovarian.
Test [5] relates to OVCAR-8 ovarian.
Test [6] deals with SF-539 CNS.
In test [7] the test system is SNB-19 CNS.
Test [8] relates to SNB-75 CNS.
Test [9] deals with TK-10 renal.
For test [10], the system named is UO-31 renal.

Turning to `CC/C=C\C/C=C\C[C@H](O)C/C=C1/C(=O)C=C[C@@H]1C/C=C\CCCC(=O)O`, the GI50 is 14.5 µM in test [1]; 3.47 µM in test [2]; 3.06 µM in test [3]; 7.22 µM in test [4]; 3.56 µM in test [5]; 3.85 µM in [6]. Besides, the GI50 is 8.75 µM in test [7], 10.4 µM in [8], 8.06 µM in [9] and 5.99 µM in test [10]. The TGI in [1] was found to be 30.5 µM; in test [2] it was 15.6 µM; in test [3], 11.5 µM; in test [4] it was 30 µM; in test [5], 13.9 µM; in [6] it was 15.2 µM. Besides, the TGI in [7] is 24.3 µM; in test [8], 28.6 µM; in [9] it was 21.1 µM; in [10] it was 20.3 µM.

Regarding `COC(=O)[C@]12CC[C@@H](C)[C@H](C)[C@@H]1C1=CC[C@@H]3[C@@]4(C)C(C=O)=C[C@@](C)(COC(=O)c5ccco5)[C@@H]4C(=O)C[C@@]3(C)[C@]1(C)CC2`, the GI50 in test [1] is 4.64 µM; in test [2] it was 3.96 µM; in [3], 4.26 µM; in test [4], 68.8 µM; in test [5], 5.55 µM; in test [6] it was 23 µM. The GI50 in test [7] was 6.15 µM; in test [8] it was 4.24 µM; in test [9], 11.7 µM; in test [10], 3.54 µM. Besides, the TGI in [1], in [2], in [3], in test [4], in test [5] and in [6] was over 100 µM in each case. Moreover, the TGI in test [7], in test [8], in [9] and in [10] was over 100 µM each time.

As to `Cc1ccc(Nc2n[nH]c(=S)s2)cc1`, the TGI in [1], in test [2], in test [3], in test [4], in [5] and in test [6] was over 100 µM throughout. Also, the TGI in [7], in test [8], in test [9] and in [10] was over 100 µM throughout.

With `N#Cc1ccc(N2Cc3ccccc3OC3=C2C(=O)c2c(O)ccc(O)c2C3=O)cc1`, the GI50 in [1] is 0.818 µM; in test [2], 0.174 µM; in test [3] it was 1.28 µM; in test [4], 0.437 µM; in test [5], 0.336 µM; in test [6], 0.564 µM. Also, the GI50 in [7] was 1.09 µM; in test [8], 0.66 µM; in test [9], 0.118 µM; in test [10], 0.166 µM. In addition, the TGI stood at 4.17 µM in [1]; 0.618 µM in test [2]; 6.1 µM in test [3]; 1.58 µM in [4]; 2.5 µM in [5]; 1.38 µM in test [6]. The TGI in [7] is 5.05 µM; in test [8], 2.68 µM; in [9] it was 0.265 µM; in test [10], 0.357 µM.

On to `CN1CCN(c2ccc3nc(-c4c(N)c5c(F)cccc5[nH]c4=O)[nH]c3c2)CC1`, for which the GI50 in [1] was 2.38 µM and > 2.44 µM and 4.23 µM; in test [2], 0.495 µM and 0.419 µM and 0.485 µM; in [3] it was 0.0357 µM and 0.0406 µM and 0.0407 µM; in test [4], 1.42 µM and 1.03 µM and 1.76 µM; in test [5], 1.26 µM and 0.874 µM and 1.67 µM; in [6] it was 0.566 µM and 0.338 µM and 0.487 µM. Further, the GI50 in test [7] was 1.9 µM and > 1.97 µM and 2.56 µM; in [8] it was 0.695 µM and 0.399 µM and 0.994 µM; in test [9] it was 1.14 µM and 1.01 µM and 3.56 µM; in test [10] it was 0.347 µM and 0.224 µM and 0.232 µM. Also, the TGI in test [1] is 9.65 µM and > 7.22 µM and 16.2 µM; in test [2], 5.43 µM and > 7.05 µM and 7.76 µM; in [3], 2.07 µM and > 3.51 µM and 7.5 µM; in test [4], 3.94 µM and > 6.96 µM and 6.94 µM; in test [5], 3.21 µM and > 5.17 µM and 12.5 µM; in [6], 1.96 µM and 1.21 µM and 1.75 µM. Also, the TGI is 8.89 µM and > 10 µM and 12.6 µM in test [7]; 2.64 µM and 8.04 µM and 5.68 µM in test [8]; 4.95 µM and > 4.67 µM and 16.8 µM in [9]; 1.91 µM and > 2.8 µM and 1.54 µM in [10].

On to `COC(=O)C1=C(C(=O)OC)C23CC1C1C(C(=O)OC)=C(C(=O)OC)C12C1C=CC3C2C(=O)OC(=O)C21` (centres undefined), for which the TGI in test [1], in test [2], in test [3], in test [4], in test [5] and in test [6] was over 100 µM each time. Further, the TGI is over 100 µM in test [7], 47.7 µM in test [8], over 100 µM in test [9] and over 100 µM in test [10].

On to `CCOC(=O)/C=C/c1cc2cc(-c3csc4ccccc34)ccc2[nH]1`, for which the GI50 is 7.36 µM in test [1]; 3.59 µM in test [2]; 2.67 µM in test [3]; 21.6 µM in test [4]; 3.79 µM in test [5]; 14 µM in test [6]. The GI50 in test [7] is 16 µM; in test [8] it was 6.14 µM; in test [9] it was 14.4 µM; in test [10] it was 4.94 µM. Moreover, the TGI in [1] is 20.2 µM; in [2] it was 15.8 µM; in test [3], 7.93 µM; in test [4] it was 42.6 µM; in test [5], 13.7 µM; in test [6], 27.1 µM. Besides, the TGI was 33.5 µM in [7], 20.8 µM in test [8], 29 µM in [9] and 19.1 µM in [10].

Take `OCC1OC(OCC(O)C(O)C(O)C(/C=N/Nc2ccccc2)=N/Nc2ccccc2)C(O)C(O)C1O` (centres undefined): the TGI in test [1], in test [2], in test [3], in [4], in test [5] and in test [6] was over 100 µM throughout. The TGI in [7], in [8], in test [9] and in test [10] was over 100 µM each time.

Turning to `CN(C)c1ccc(/C=C2\N=C(c3ccc([N+](=O)[O-])cc3)OC2=O)cc1`, the TGI in [1] was over 100 µM; in test [2], 45.4 µM; in test [3], over 100 µM; in test [4] it was over 100 µM; in test [5] it was over 100 µM; in [6] it was over 100 µM. The TGI in test [7], in [8] and in test [9] was over 100 µM in each case.
